Reference: patent US20210045385A1, “PYRIDAZINONE-SUBSTITUTED KETOXIMES AS HERBICIDES” (FMC Corporation, priority 2018, published 2021)

How the values were obtained:
Type in all cases: in vivo
[1] = system: Italian ryegrass (Lolium mutiflorum); assay: Test C preemergence, visual plant response rating
Summary of the method: (§1)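 Compounds in a non-phytotoxic solvent with surfactant were applied as a directed soil spray preemergence or to 2–10 cm, one- to two-leaf plants postemergence, in loam–sand soil. After about 10 d in a greenhouse, injury was visually rated against untreated controls on a 0–100 scale (100 = complete control).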

[2] = system: barnyardgrass (Echinochloa crus-galli); assay: Test C preemergence, visual plant response rating
Summary of the method: as §1

[3] = system: foxtail, giant (giant foxtail, Setaria faberi); assay: Test C preemergence, visual plant response rating
Summary of the method: as §1

kochia (Bassia scoparia) [4] = assay: Test C preemergence, visual plant response rating
Summary of the method: as §1

[5] = system: pigweed (Amaranthus retroflexus); assay: Test C preemergence, visual plant response rating
Summary of the method: as §1

[6] = system: Italian ryegrass (Lolium mutiflorum); assay: Test C postemergence, visual plant response rating
Summary of the method: as §1

[7] = system: barnyardgrass (Echinochloa crus-galli); assay: Test C postemergence, visual plant response rating
Summary of the method: as §1

[8] = system: blackgrass (Alopecurus myosuroides); assay: Test C postemergence, visual plant response rating
Summary of the method: as §1

corn (Zea mays) = assay: Test C postemergence, visual plant response rating
Summary of the method: as §1

[9] = system: foxtail, giant (giant foxtail, Setaria faberi); assay: Test C postemergence, visual plant response rating
Summary of the method: as §1

[10] = system: galium (catchweed bedstraw, Galium aparine); assay: Test C postemergence, visual plant response rating
Summary of the method: as §1

kochia (Bassia scoparia) [11] = assay: Test C postemergence, visual plant response rating
Summary of the method: as §1

[12] = system: pigweed (Amaranthus retroflexus); assay: Test C postemergence, visual plant response rating
Summary of the method: as §1

[13] = system: ragweed (common ragweed, Ambrosia artemisiifolia); assay: Test C postemergence, visual plant response rating
Summary of the method: as §1

[14] = system: wheat (Triticum aestivum); assay: Test C postemergence, visual plant response rating
Summary of the method: as §1

[15] = system: barnyardgrass (Echinochloa crus-galli); assay: Test D flooded paddy test, visual plant response rating; details: 250 g ai/ha, scale 0 to 100 (0 no effect, 100 complete control), 13 to 15 d
Summary of the method: (§2)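 2-leaf plants, flooded 3 cm, cpd into paddy water; greenhouse 13–15 d; visual rating vs controls, 0 = no effect, 100 = complete control; dash = no result.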

[16] = system: duck salad (Heteranthera limosa); assay: as above; details: 250 g ai/ha, scale 0 to 100 (0 no effect, 100 complete control), 13 to 15 d
Summary of the method: as §2

rice (Oryza sativa) = assay: as above; details: 250 g ai/ha, scale 0 to 100 (0 no effect, 100 complete control), 13 to 15 d
Summary of the method: as §2

[17] = system: sedge umbrella (small-flower umbrella sedge, Cyperus difformis); assay: as above; details: 250 g ai/ha, scale 0 to 100 (0 no effect, 100 complete control), 13 to 15 d
Summary of the method: as §2

[18] = Test C, 31 g ai/ha, 0 is no effect, 100 is complete control
[19] = Test C, postemergence, 125 g ai/ha
[20] = Test C, 125 g ai/ha, 0 is no effect, 100 is complete control

Row | Compound | Ryegrass, Italian plant response rating (0 to 100 scale) [1, 18] | Barnyardgrass plant response rating (0 to 100 scale) [2, 18] | Foxtail, Giant plant response rating (0 to 100 scale) [3, 18] | Kochia plant response rating (0 to 100 scale) (kochia (Bassia scoparia) [4]; [18]) | Pigweed plant response rating (0 to 100 scale) [5, 18] | Ryegrass, Italian plant response rating (0 to 100 scale) ([6]; Postemergence, 31 g ai/ha) | Ryegrass, Italian plant response rating (0 to 100 scale) [6, 19] | Barnyardgrass plant response rating (0 to 100 scale) ([7]; Postemergence, 31 g ai/ha) | Barnyardgrass plant response rating (0 to 100 scale) [7, 19] | Blackgrass plant response rating (0 to 100 scale) ([8]; Postemergence, 31 g ai/ha) | Blackgrass plant response rating (0 to 100 scale) [8, 19] | Corn plant response rating (0 to 100 scale) (corn (Zea mays); Postemergence, 31 g ai/ha) | Corn plant response rating (0 to 100 scale) (corn (Zea mays); [19]) | Foxtail, Giant plant response rating (0 to 100 scale) ([9]; Postemergence, 31 g ai/ha) | Foxtail, Giant plant response rating (0 to 100 scale) [9, 19] | Galium plant response rating (0 to 100 scale) ([10]; Postemergence, 31 g ai/ha) | Galium plant response rating (0 to 100 scale) [10, 19] | Kochia plant response rating (0 to 100 scale) (kochia (Bassia scoparia) [11]; Postemergence, 31 g ai/ha) | Kochia plant response rating (0 to 100 scale) (kochia (Bassia scoparia) [11]; [19]) | Pigweed plant response rating (0 to 100 scale) ([12]; Postemergence, 31 g ai/ha) | further results
1 | CON=C(c1cc(Cl)cc(Cl)c1)c1c(O)c(C)nn(C)c1=O [Compound 189] | 90 | 20 | 20 | 0 | 70 | 90 | 100 | 30 | 50 | 10 | 30 | 0 | 10 | 50 | 80 | 100 | 100 | 70 | 90 | 50 | Ryegrass, Italian plant response rating (0 to 100 scale) ([1]; 125 g ai/ha): 100; Barnyardgrass plant response rating (0 to 100 scale) ([2]; 125 g ai/ha): 90; Foxtail, Giant plant response rating (0 to 100 scale) ([3]; 125 g ai/ha): 90; Kochia plant response rating (0 to 100 scale) (kochia (Bassia scoparia) [4]; 125 g ai/ha): 40; Pigweed plant response rating (0 to 100 scale) ([5]; 125 g ai/ha): 100; Pigweed plant response rating (0 to 100 scale) [12, 19]: 80; Ragweed plant response rating (0 to 100 scale) ([13]; Postemergence, 31 g ai/ha): 70; Ragweed plant response rating (0 to 100 scale) [13, 19]: 90; Wheat plant response rating (0 to 100 scale) ([14]; Postemergence, 31 g ai/ha): 10; Wheat plant response rating (0 to 100 scale) [14, 19]: 50; Plant response rating, Barnyardgrass (Flood) [15]: 0; Plant response rating, Ducksalad (Flood) [16]: 25; Plant response rating, Rice (Flood) (rice (Oryza sativa)): 15; Plant response rating, Sedge, Umbrella (Flood) [17]: 35
2 | CO/N=C(/c1c(O)c(Cl)nn(C)c1=O)c1ccc(F)c2ccccc12 [Compound 207] | 40 | 20 | 30 | 0 | 50 | 20 | 80 | 20 | 60 | 30 | 20 | 30 | 10 | 30 | 70 | 90 | 100 | 60 | 70 | 50 | Ryegrass, Italian plant response rating (0 to 100 scale) [1, 20]: 80; Barnyardgrass plant response rating (0 to 100 scale) [2, 20]: 80; Foxtail, Giant plant response rating (0 to 100 scale) [3, 20]: 90; Kochia plant response rating (0 to 100 scale) (kochia (Bassia scoparia) [4]; [20]): 60; Pigweed plant response rating (0 to 100 scale) [5, 20]: 80; Pigweed plant response rating (0 to 100 scale) [12, 19]: 80; Ragweed plant response rating (0 to 100 scale) ([13]; Postemergence, 31 g ai/ha): 30; Ragweed plant response rating (0 to 100 scale) [13, 19]: 90; Wheat plant response rating (0 to 100 scale) ([14]; Postemergence, 31 g ai/ha): 0; Wheat plant response rating (0 to 100 scale) [14, 19]: 0; Plant response rating, Barnyardgrass (Flood) [15]: 0; Plant response rating, Ducksalad (Flood) [16]: 0; Plant response rating, Rice (Flood) (rice (Oryza sativa)): 0; Plant response rating, Sedge, Umbrella (Flood) [17]: 0
3 | CON=C(c1c(OC(C)=O)c(Cl)nn(C)c1=O)c1ccc(F)c2ccccc12 [Compound 190] | 0 | 30 | 60 | 0 | 20 | 10 | 20 | 30 | 20 | 0 | 20 | 0 | 0 | 10 | 30 | 90 | 100 | 10 | 20 | 30 | Ryegrass, Italian plant response rating (0 to 100 scale) ([1]; 125 g ai/ha): 60; Barnyardgrass plant response rating (0 to 100 scale) ([2]; 125 g ai/ha): 50; Foxtail, Giant plant response rating (0 to 100 scale) ([3]; 125 g ai/ha): 70; Kochia plant response rating (0 to 100 scale) (kochia (Bassia scoparia) [4]; 125 g ai/ha): 0; Pigweed plant response rating (0 to 100 scale) ([5]; 125 g ai/ha): 90; Pigweed plant response rating (0 to 100 scale) [12, 19]: 30; Ragweed plant response rating (0 to 100 scale) ([13]; Postemergence, 31 g ai/ha): 10; Ragweed plant response rating (0 to 100 scale) [13, 19]: 60; Wheat plant response rating (0 to 100 scale) ([14]; Postemergence, 31 g ai/ha): 0; Wheat plant response rating (0 to 100 scale) [14, 19]: 0; Plant response rating, Barnyardgrass (Flood) [15]: 0; Plant response rating, Ducksalad (Flood) [16]: 0; Plant response rating, Rice (Flood) (rice (Oryza sativa)): 0; Plant response rating, Sedge, Umbrella (Flood) [17]: 0
